Columns and labels:
KK-A^y mice = experiment: Liver triglyceride content in nonalcoholic simple fatty liver model (KK-A^y mice); format: in vivo; settings: for Effect on liver triglyceride content (in words): versus vehicle; for Liver triglyceride content: mean±standard error
Experimental: KK-A^y mice (female, purchased from CLEA Japan, Inc.) were used. The mice were fed with CMF (for special breeding, purchased from Oriental Yeast Co., Ltd., Japan) ad libitum. At 14 weeks of age, they were measured for their body weight, blood glucose levels, plasma insulin levels, plasma triglyceride levels and plasma alanine aminotransferase (ALT), and then divided into two groups such that these items were equal between the groups (8 animals per group). The first group was administered with vehicle (0.5% methylcellulose) at a dose of 10 mL/kg, and the second group was administered with a choline salt of (1S)-1,5-anhydro-1-[5-(azulen-2-ylmethyl)-2-hydroxyphenyl]-D-glucitol (i.e., a choline salt of Compound A) at a dose of 3 mg/kg (calculated as Compound A), each being administered orally once a day for 2 weeks. On the day following the final administration, the liver was collected from each mouse under ether anesthesia, frozen in liquid nitrogen and then stored at −80° C.
Liver triglyceride content was measured in the following manner.
1. A portion (50 to 150 mg) of each liver frozen and stored at −80° C. was taken to an Assist tube. 2. After addition of methanol (2 mL), the liver sample was homogenized with a POLYTRON (KINEMATICA). 3. To the homogenate, chloroform (4 mL) was added and vigorously stirred at room temperature for 10 minutes. 4. Milli-Q water (1 mL) was further added and vigorously stirred. 5. The sample was centrifuged in a low speed centrifuge (Hitachi, Ltd., Japan) (2,500 rpm, 5 min, room temperature). 6. A portion of the lower layer (total volume: 4.5 mL) was taken to an Eppendorf tube and evaporated in a centrifugal evaporator (Sakuma Seisakusho, Japan) to remove the solvent. 7. The residue in the Eppendorf tube was dissolved again by addition of ethanol (10 μL). 8. Triglyceride E-Test Wako reagent (1 mL, Wako Pure Chemical Industries, Ltd., Japan) was added to the resulting solution, and triglycerides were quantified. 9. From the result obtained above, the triglyceride content per g of liver was calculated for each sample. The data were expressed as mean±standard error.
(§1) The test was conducted in the same manner as shown in Example 1, except that this test was conducted with 3 groups of 8 animals, and the first group was administered with vehicle (0.5% methylcellulose) at a dose of 10 mL/kg, the second group was administered with a co-crystal (1:1 molar ratio) of (1S)-1,5-anhydro-1-[3-(1-benzothiophen-2-ylmethyl)-4-fluorophenyl]-D-glucitol (Compound B) and L-proline at a dose of 3 mg/kg (calculated as Compound B), and the third group was administered with a control compound, 2-(4-methoxybenzyl)phenyl 6-O-ethoxycarbonyl-β-D-glucopyranoside (hereinafter also referred to as Compound X, whose structural formula is shown below) disclosed in Patent Document 1 (supra) at a dose of 36 mg/kg, each being administered orally once a day for 2 weeks. Then, the liver triglyceride content was measured for each group in the same manner as shown in Example 1.
as §1, with “Compound B” for “(1S)-1,5-anhydro-1-[3-(1-benzothiophen-2-ylmethyl)-4-fluorophenyl]-D-glucitol (Compound B)”, “T-1095 disclosed in Patent Document 2 (supra), i.e., 3-(benzo[b]furan-5-yl)-2′,6′-dihydroxy-4′-methylpropiophenone 2′-O-(6-O-methoxycarbonyl)-β-D-glucopyranoside” for “2-(4-methoxybenzyl)phenyl 6-O-ethoxycarbonyl-β-D-glucopyranoside”, “Y,” for “X,”, “below)” for “below) disclosed in Patent Document 1 (supra)”, “34” for “36”
The test was conducted in the same manner as shown in Example 1. […]

SGLT = settings: disclosed in Patent Documents 3, 5 and 6; cited from earlier work
MCD diet-fed Wistar rats = experiment: Nonalcoholic steatohepatitis model, MCD diet-fed rats: liver histopathology scores; format: in vivo; settings: co-crystal of Compound B and L-proline 3 mg/kg orally once a day for 16 weeks, five-point scale 0-4, versus MCD diet vehicle group
Experimental: This test was conducted by reference to a document (J. Hepatol., 2003, 39, 756-764). Wistar rats (male, purchased from Charles River Japan, Inc.) were used. The rats were fed with MCD diet (methionine/choline-deficient diet, MP Biochemicals) or normal control diet (methionine/choline control diet, MP Biochemicals) ad libitum. At 9 weeks of age, they were measured for their body weight and divided into groups of equal body weight, followed by initiation of the test (10 animals per group). The first group was fed with normal control diet and administered with vehicle (0.5% methylcellulose) at a dose of 5 mL/kg. The second and third groups were fed with MCD diet, and the second group was administered with vehicle (0.5% methylcellulose) at a dose of 5 mL/kg, while the third group was administered with a co-crystal (1:1 molar ratio) of Compound B and L-proline at a dose of 3 mg/kg (calculated as Compound B). Each drug was administered orally once a day for 16 weeks. On the day following the final administration, the liver was collected from each rat under ether anesthesia and a portion of the liver was fixed in 10% neutral buffered formalin. […]

[1] = tested on: CDAA diet-fed Wistar rats; experiment: Nonalcoholic steatohepatitis model, CDAA diet-fed rats: hepatic fibrosis score; format: in vivo; settings: Example 5, FIG. 3; co-crystal of Compound B and L-proline 3 mg/kg orally once a day for 5 weeks; five-point scale 0-4; versus CDAA diet vehicle group
Experimental: This test was conducted by reference to a document (Biochem Biophys Res Commun., 2004, 315(1), 187-195). Wistar rats (male, purchased from Charles River Japan, Inc.) were used. The rats were fed with CDAA diet (choline-deficient L-amino acid-defined diet (Choline Deficient and Iron Supplemented L-Amino Acid Defined Rat Diet, Dyets)) or normal control diet (Choline and Iron Supplemented L-Amino Acid Defined Rat Diet, Dyets) ad libitum. At 9 weeks of age, they were measured for their body weight and divided into groups of equal body weight, followed by initiation of the test (10 animals per group). […] The second and third groups were fed with CDAA diet, and the second group was administered with vehicle (0.5% methylcellulose) at a dose of 5 mL/kg, while the third group was administered with a co-crystal (1:1 molar ratio) of Compound B and L-proline at a dose of 3 mg/kg (calculated as Compound B). […] After a portion of the liver was fixed in 10% neutral buffered formalin, paraffin sections (3 μm) were prepared in a standard manner and subjected to van Gieson staining Fibrosis was evaluated by reference to the Brunt classification (Clinical Practice Guidelines for NASH/NAFLD, edited by the Japan Society of Hepatology, 2006), based on a five-point scale of 0, 1, 2, 3 and 4 (see Table 4).

db/db mice = settings: disclosed in Patent Document 2; cited from earlier work

OC[C@H]1O[C@@H](c2cc(Cc3cc4cccccc-4c3)ccc2O)[C@H](O)[C@@H](O)[C@@H]1O [Compound A, (1S)-1,5-anhydro-1-[5-(azulen-2-ylmethyl)-2-hydroxyphenyl]-D-glucitol]
Effect on liver triglyceride content (in words) (KK-A^y mice; Example 1, 3 mg/kg orally once a day for 2 weeks): significantly improved | Liver triglyceride content (KK-A^y mice; Example 1, choline salt of Compound A, 3 mg/kg (calculated as Compound A) orally once a day for 2 weeks, vehicle 60.0 ± 8.4): 30.7 ± 5.4 mg/g liver | SGLT inhibitory activity (SGLT): shows SGLT inhibitory activity

OC[C@H]1O[C@@H](c2ccc(F)c(Cc3cc4ccccc4s3)c2)[C@H](O)[C@@H](O)[C@@H]1O [Compound B, (1S)-1,5-anhydro-1-[3-(1-benzothiophen-2-ylmethyl)-4-fluorophenyl]-D-glucitol]
Effect on liver triglyceride content (in words) (KK-A^y mice; Example 2, 3 mg/kg orally once a day for 2 weeks): significantly improved | Liver triglyceride content (KK-A^y mice; Example 2, co-crystal of Compound B and L-proline, 3 mg/kg (calculated as Compound B) orally once a day for 2 weeks, vehicle 52.8 ± 4.9): 34.8 ± 1.9 mg/g liver | Effect on liver triglyceride content (in words) (KK-A^y mice; Example 3, 3 mg/kg orally once a day for 2 weeks): significantly improved | Liver triglyceride content (KK-A^y mice; Example 3, co-crystal of Compound B and L-proline, 3 mg/kg (calculated as Compound B) orally once a day for 2 weeks, vehicle 59.7 ± 6.2): 41.2 ± 5.1 mg/g liver | Pathological score of inflammatory cell infiltration (MCD diet-fed Wistar rats; Example 4, FIG. 1): significantly improved | Pathological score of hepatic fibrosis (MCD diet-fed Wistar rats; Example 4, FIG. 2): significantly improved | Pathological score of hepatic fibrosis [1]: significantly improved | SGLT inhibitory activity (SGLT): shows SGLT inhibitory activity

CCOc1ccc(Cc2cc([C@@H]3O[C@H](CO)[C@@H](O)[C@H](O)[C@H]3O)ccc2Cl)cc1 [Compound C, (1S)-1,5-anhydro-1-[4-chloro-3-(4-ethoxybenzyl)phenyl]-D-glucitol]
Effect on liver triglyceride content (in words) (KK-A^y mice; Example 6, 3 mg/kg orally once a day for 2 weeks): significantly improved | Liver triglyceride content (KK-A^y mice; Example 6, 3 mg/kg orally once a day for 2 weeks, vehicle 60.2 ± 7.1): 28.6 ± 3.9 mg/g liver

CCOC(=O)OC[C@H]1O[C@@H](Oc2ccccc2Cc2ccc(OC)cc2)[C@H](O)[C@@H](O)[C@@H]1O [Compound X, 2-(4-methoxybenzyl)phenyl 6-O-ethoxycarbonyl-β-D-glucopyranoside, reference compound]
Liver triglyceride content (KK-A^y mice; Example 2, 3 mg/kg orally once a day for 2 weeks, vehicle 52.8 ± 4.9): 57.9 ± 4.5 mg/g liver | Effect on liver triglyceride content (in words) (KK-A^y mice; Example 2, 36 mg/kg orally once a day for 2 weeks): no significant effect | Effect on liver triglyceride content (in words) (KK-A^y mice; Example 3, 34 mg/kg orally once a day for 2 weeks): no significant effect

COC(=O)OC[C@H]1O[C@@H](Oc2cc(C)cc(O)c2C(=O)CCc2ccc3occc3c2)[C@H](O)[C@@H](O)[C@@H]1O [Compound Y, 3-(benzo[b]furan-5-yl)-2′,6′-dihydroxy-4′-methylpropiophenone 2′-O-(6-O-methoxycarbonyl)-β-D-glucopyranoside, reference compound]
Liver triglyceride content (KK-A^y mice; Example 3, 34 mg/kg orally once a day for 2 weeks, vehicle 59.7 ± 6.2): 59.7 ± 8.9 mg/g liver | Blood triglyceride levels (db/db mice): reduced blood triglyceride levels
